Read-outs that look alike come from different tables or passages of the source.
Legend:
[1] = Photochemical stability, xenon arc illumination of air-saturated solutions; format: physicochemical
Text: Fluo-3 was briefly checked for photochemical stability. […] Since the biological usability of fluorescein is well established, the photochemical resistance of fluo-3 would seem to be adequate if not outstanding.

[2] = Mg2+ dissociation constant in Mg2+/EGTA buffers
Description: Free [Mg2+] was controlled by Mg^2+ /EGTA buffers assuming an apparent dissociation constant for the Mg^2+ /EGTA complex (including its monoprotonated form) of 6 mM at pH 7.60, 0.12 M ionic strength, 20°, as calculated from the data of Martell & Smith (see ref. 12).

[3] = Product of fluorescence quantum efficiency and extinction coefficient vs free [Ca2+] (FIG. 6); format: physicochemical
Text: (§1) FIG. 6. The product of fluorescence quantum efficiency and extinction coefficient vs. free [Ca^2+ ] (note log axes for both) for quin-2, fura-2, indo-1, rhod-2, and fluo-3. All data are for room temperature, 0.1 M KCl, no added Mg^2+. […] The curve for fluo-3 used the data of Table I with extinction coefficients of 7.5×10^4 to 8.35×10^4 at 506 nm; the curve for rhod-2 assumed a Ca^2+ -independent extinction coefficient of 1×10^5 M^-1 cm^-1.
Whereas fura-2 and indo-1 were clearly much more intensely fluorescent than quin-2, enabling measurements with much less added dye and Ca^2+ buffering, comparison of the brightness of the new dyes with that of fura-2 and indo-1 is more complex of the different operating wavelengths. The simplest measure of the intrinsic brightness of a fluorophore is the product of its emission quantum efficiency and its extinction coefficient at the appropriate excitation wavelength (see FIG. 6). At the present time, extinction coefficients are known only for fluo-3, though one may estimate the values for the other indicators from purified model xanthene dyes (9-10×10^4 M^-1 cm^31 1). For fluo-3, the quantum efficiency×extinction coefficient ranges from 3×10^3 to 1.5×10^4 M^-1 cm^-1 for Ca^2+ values from 10^-7 M up to saturation, slightly less than the corresponding values for fura-2 excited at 340 nm, 5×10^3 to 1.6× 10^4 M^-1 cm^-1 (see FIG. 6). However, it is easier to generate higher excitation intensities at longer wavelengths, and autofluorescence will be lower, so the actual concentrations of dye needed to overcome dark current and autofluorescence may be fairly similar for the two families. On the other hand, the relatively small separation between excitation and emission peaks of the new dyes makes more stringent demands on monochromators and filters to exclude scattered light.
The Ca^2+ affinities of the new dyes are two to ten-fold weaker than those of their UV-excited predecessors. […]

[4] = Absorbance and fluorescence properties in the presence and absence of Ca2+; format: physicochemical
Description: FIG. 4. Excitation (A) and emission (B) spectra for fluo-3 at 22°±2° C. in buffers with free Ca^2+ values ranging from <1 nM to 58 microM. The titration was done starting with 3.5 ml of 100 mM KCl, 10 mM K-MOPS, 10 mM K2 H2 EGTA, 15 microM fluo-3, pH 7.03. The "O" Ca spectrum was recorded, then to reach n mM CaEGTA, (10-n) mM EGTA, n=1-10, aliquots of 3.5/(11-n) ml were iteratively discarded and replaced by equal volumes of 100 mM KCl, 10 mM K-MOPS, 10 mM K2 CaEGTA, 15 microM fluo-3, pH 7.0. After each iteration the pH (range 6.99 to 7.05) and spectra were recorded; each spectrum is labeled by the calculated free Ca^2+ in micromolar. The excitation and emission bandwidths were 1.9 nm and 4.6 nm respectively. All spectra have been normalized with respect to the peak of the 58 microM (n=10) curve. In A, emission was collected at 530 nm, and the excitation was corrected for lamp and monochromator characteristics using a rhodamine B quantum counter. In B, excitation was at 490 nm, and the emission spectrum is uncorrected for monochromator and detector sensitivity. The slightly low amplitude of the curve at 3.6 microM [Ca^2+ ] is probably due to a small error in resetting the excitation monochromator to 490 nm.
as §1
Examples of the synthetic routes than can be used to produce the new dyes of the present invention are outlined in FIGS. 2 and 3. Full descriptions of the reaction conditions are described below under the section entitled Compound Synthesis. Optical spectra were measured as described by Grynkiewicz, et al. (1985). (See ref. 9.) Quantum efficiencies of fluorescence were obtained (see ref. 10) by comparing the integral of the corrected emission spectrum of the test sample with that of a solution of rhodamine B in ethanol, quantum efficiency assumed to be 0.97 (see ref. 11), or fluorescein in 0.1 M NaOH, quantum efficiency 0.91 (see ref. 10). The concentration of the reference dye was adjusted to match the absorbance of the test sample at the wavelength of excitation.
The absorbance and fluorescence properties for the new indicators in the presence and absence of Ca^2+ are shown in Table I. The absorbance spectra were much as one would expect for rhodamine or fluorescein chromophores, though extinction coefficients (not shown) were often low in the dyes as initially isolated. Because fluo-3 appeared to be a very useful indicator compound, extra effort was expended in its purification. Eventually, quite respectable extinction coefficients were obtained, 7.9×10^4 and 8.3×10^4 M^-1 cm^-1 at 503 and 506 nm, respectively for free and Ca^2+ -bound fluo-3. Ca^2+ binding was expected to shift the absorbance maxima to longer wavelengths,since it would prevent the BAPTA amino nitrogen from donating electron density to the 9-position of the xanthene. Electron-withdrawal and donation to the central carbon of triphenylmethane dyes are known to shift absorbance peaks to longer and shorter wavelengths, respectively (see ref. 19). Indeed, Ca^2+ binding caused red shifts, but of very small magnitude, 1-3 nm, and with little change in peak height.
Fluo-3 has a visibly pinkish tinge because its chlorine atoms shift its spectra to wavelengths slightly longer than those of fluo-2, just as 2,7-dichlorofluorescein is bathochromically shifted from fluorescein. […] Thus the Ca^2+ complex of fluo-3 fluoresced 35- to 40-fold more brightly than the Ca^2+ -free dye (see FIG. 4). This degree of enhancement is the greatest yet reported for a fluorescent Ca^2+ indicator. […]

[5] = not given; remark: listed apart in the source
[6] = Calibration of [Ca2+] increases produced by UV photolysis of nitr-5 or nitr-7; settings: results not shown
Text: The most obvious difference between the present chelators and the previous tetracarboxylate Ca^2+ chelators is in their wavelengths of fluorescence excitation and emission. The new indicators' similarity to fluoresceins and rhodamines make them optically compatible with almost any fluorometer, fluorescence microscope, or flow cytometer already used for immunofluorescence detection. The fluorescein analogs fluo-1, -2, and -3 can be excited by incandescent illumination or the prominent 488 nm line of an […]. The rhodamine analogs rhod-1 rhod-2 are suited to incandescent illumination, the 531 nm line of a krypton-ion laser, or the 546 nm line of a mercury arc. By contrast, the earlier dyes quin-2 and fura-2 are best excited at 340-350 or 380-390 nm from a xenon lamp. Indo-1 does best with 350-360 nm from a xenon arc or the low-power UV lines of argon or krypton lasers. Optical elements for these UV wavelengths are preferably reflective or are made from quartz, glasses with enhanced UV transmission, or very thin ordinary glass. Plastics or thick (>1 mm) ordinary glass elements generally give too much absorbance or autofluorescence or both. By contrast, even these cheap optical materials are compatible with blue or green excitation.

[7] = room temperature, 0.1 M KCl, no added Mg^2+; read-out: Ca^2+ dissociation constant (Kd) used for FIG. 6; cited from earlier work
[8] = pH 7.60, 0.12 M ionic strength, 20°; read-out: Apparent dissociation constant for the Mg^2+ complex (including monoprotonated form); cited from earlier work
[9] = pH 7.03, 100 mM KCl, 20° C; read-out: Apparent dissociation constant for the Ca^2+ complex; cited from earlier work

## Cc1ccc(N(CC(=O)O)CC(=O)O)c(OCCOc2cc(-c3c4cc(Cl)c(=O)cc-4oc4cc(O)c(Cl)cc34)ccc2N(CC(=O)O)CC(=O)O)c1 [fluo-3, 9-(4-bis(carboxymethyl)amino-3-(2-(2-bis(carboxymethyl)amino-5-methylphenoxy)ethoxy)phenyl)-2,7-dichloro-6-hydroxy-3 H-xanthen-3-one]
[1]; Ca^2+ complex
  Photobleaching rate, Ca^2+ complex: bleached about half as quickly
[1]; Ca^2+-free
  Photobleaching rate, Ca^2+-free: bleached at about the same rate as ordinary fluorescein anion
[2]
  Effect of Mg^2+ binding on chelator fluorescence: relatively little effect
[2]; Mg^2+ binding
  Fluorescence enhancement by Mg^2+ binding: about 1.4 fold
[2]; read-out: Mg^2+ dissociation constant, 25°, 0.1-0.15 M ionic strength
  Kd: 9000 µM
[3]
  [Ca^2+] giving double the fluorescence at zero [Ca^2+]: 11 nM
[3]; 11 nM [Ca^2+]
  Conversion to Ca^2+ complex at 11 nM [Ca^2+]: 2.5%
[3]; Ca^2+ complex vs free dye
  Brightness of Ca^2+ complex relative to free dye (in words): forty-fold brighter
100 mm kcl, tris-mops
  Amino pKa, independent rough confirmation from intermediate [Ca^2+] curves: about 6.2
  pKa of amino nitrogen: about 6.2
  pKa of chromophore (absorbance spectrum or fluorescence amplitude of Ca^2+-complex): 4.5-4.6
Ca^2+-free, maximal
  Increase of fluorescence of Ca^2+-free dye, pH 8 to pH 5: ≤ 3 fold
pH about 6.1-6.2 vs pH ~8
  Effectiveness of intermediate Ca^2+ at enhancing fluorescence at pH 6.1-6.2 vs pH ~8: about half as effective
[4]; 503 nm, free
  Extinction coefficient, free dye: 79000 M⁻¹ cm⁻¹
[4]; 506 nm, Ca^2+-bound
  Extinction coefficient, Ca^2+-bound dye: 83000 M⁻¹ cm⁻¹
[4]; Ca^2+ complex vs free dye
  Fluorescence enhancement, Ca^2+ complex vs Ca^2+-free dye: 40 fold
[4]; excess Ca
  Fluorescence maxima, emission, with excess Ca: 526 nm
  Fluorescence maxima, excitation, with excess Ca: 506 nm
  Fluorescence quantum efficiency, excess Ca: .183
[4]; excess Ca vs. zero Ca
  Fluorescence ratio, excess vs. zero Ca: 36-40
[4]; zero Ca
  Fluorescence quantum efficiency, zero Ca: .0051
[5]
  Effect of added chlorines on Ca^2+ affinity: very little effect
[5]; read-out: Effective dissociation constant Kd for Ca^2+, pH 7.0-7.5, ionic strengths 0.1-0.15
  Kd: 0.45 µM

## Cc1ccc(N(CC(=O)O)CC(=O)O)c(OCCOc2cc3cc(-c4ncc(C(=O)O)o4)oc3cc2N(CC(=O)O)CC(=O)O)c1 [fura-2]
[6]
  Effect of excitation wavelengths on "caged" calcium: the excitation wavelengths began to photolyze the "caged" calcium
[7]
  Kd: 0.135 µM

## O=C(O)CN(CCOCCOCCN(CC(=O)O)CC(=O)O)CC(=O)O [EGTA, ethylene glycol bis(-beta-aminoethyl ether)-N,N,N',N'-tetraacetic acid]
[8]
  Kd: 6000 µM
[9]
  Kd: 0.327 µM
